Assay results from patent US20230146533A1, “KERATIN BD-10, PREPARATION METHOD THEREFOR AND PHARMACEUTICAL COMPOSITION AND USE THEREOF” (INSTITUTE OF MATERIA MEDICA, CHINESE ACADEMY OF MEDICAL …, priority 2019, published 2023).
Counter-ions that a name gives are not always drawn. Marks after values point to notes of the source that are not given here.

Legend:
[1] = test system: mice cough induced by ammonia water; test: Antitussive test, cough induced by ammonia water in mice; assay type: in vivo, ICR mice
Experimental: Animals: male ICR mice; Drugs and reagents: dextromethorphan hydrobromide, ammonia water, 0.2% CMC-Na, protein BD-10; Apparatus: Compressed nebulizer (403T type), balance (XS105DU type). Experiment grouping: • Solvent control group; • Dextromethorphan 15 mg/kg group; • Protein BD-10, 20 mg/kg group, 50 mg/kg group.
Dextromethorphan and different doses of protein BD-10 (administration volume 10 ml/kg) were given orally in groups, and the solvent control group was given the same volume of distilled water. One hour later, mice were put into a sealed box and atomized 10% ammonia water for 10 seconds, and then observed and recorded the incubation period of cough in mice and the number of coughs in 2 minutes.
Record the time point of oral administration, the time point of atomization experiment, the incubation period of mice cough and the number of coughs within 2 minutes, respectively. The incubation period of cough refers to the number of seconds from the start of the atomization of ammonia to the occurrence of cough. The performance of coughing in mice is based on contraction of their abdominal muscles (breast contraction) and opening their mouths at the same time. Calculate the mean and standard error of each group of data, and use TTEST to compare the model group with other groups, and P<0.05 is considered as a significant difference.

[2] = test system: PLO-induced epilepsy in mice; test: Pilocarpine (PLO) induced convulsive epilepsy in mice; assay type: in vivo, ICR mice; design: mortality rate: unit not given here; details: Diazepam 2 mg/kg, PLO 225 mg/kg i.p.
Experimental: Animals: male ICR mice; Drugs: Pilocarpine HCl (PLO, pilocarpine, pilocarpine hydrochloride), Diazepam (diazepam tablets), protein BD-10.
Experiment grouping: • Model group: • Diazepam 2 mg/kg group; • Protein BD-10, 50 mg/kg group, 200 mg/kg group.
The drug was administered once in the afternoon the day before modeling, PLO-225 mg/kg (modeling agent) was injected intraperitoneally 1 hour after the test drug was administered intragastrically on the day of modeling. And positive drug can be administered once 20 minutes before modeling. Observe for 30 minutes after PLO injection.
Observation indicators: (1)Seizure situation: the time of seizures from Grade II to Grade IV; (2)the time to death.
(§1) Seizure grade: Refer to Racine grading standard: Grade 0: No response; Grade I: manifested as twitching of facial muscles or the corners of the mouth; Grade II: can nod; Grade III: twitching of one limb; Grade IV: rigidity or body twitching; Grade V: generalized epilepsy (generalized tonic seizures).
Count the number of Grade IV seizures and deaths in each group of mice in the experiment; Grade II, III and IV incubation period. […] Chi-square test was used for statistics of the number of cases. The mean value and standard error of the incubation period were calculated, and TTEST was used to compare the model group with other groups. P<0.05 was considered as a significant difference.

[3] = test system: PTZ-induced epilepsy in mice; test: Pentylenetetrazole (PTZ) induced epilepsy in mice; assay type: in vivo, ICR mice; details: Retigabine 60 mg/kg, PTZ 65 mg/kg i.p.
Experimental: Medicines: Pentylenetetrazol (PTZ), Retigabine, Protein BD-10.
Experiment grouping: • Model group; • Retigabine 60 mg/kg group; • Protein BD-10, 50 mg/kg group, 200 mg/kg group;
The drug was administered once in the afternoon the day before modeling, On the day of modeling, PTZ-65 mg/kg (modeling agent) was injected intraperitoneal 1 hour after the test drug was administered intragastrically, and the positive drug can be administered once half an hour before modeling. Continue to observe for 15 minutes after injection of PTZ.
Observation index: (1)Seizure situation: the time of seizures from Grade III to Grade VI; (2)Death situation
as §1
Count the cases of seizures and deaths in each group of mice in the experiment; Grade III and IV incubation period. The incubation period of mice that have not attacked to Grade IV is recorded as the maximum of 900 seconds. Chi-square test was used for statistics of the number of cases. Calculate the mean and standard error of the incubation period. Use TTEST to compare the model group with other groups, and P<0.05 is considered as a significant difference.

[4] = test system: lipopolysaccharide (LPS) induced fever in SD rats; test: Lipopolysaccharide (LPS) induced fever model in SD rats; assay type: in vivo; details: aspirin 300 mg/kg oral
Experimental: Animals: 230-260 grams of male SD rats; Drugs: lipopolysaccharide (LPS, SIGMA L-2880), aspirin (SIGMA A2093), protein BD-10; Instruments: electronic balance (SARTORIUS BP121S type), electronic clinical thermometer (CITIZEN CT-513W type).
Method: the method of intraperitoneal injection of Lipopolysaccharide to replicate rat fever model.
(§2) Preparation of experimental animals: After the experimental animals adapt to the experimental environment (temperature 22° C.±2° C., relative humidity 50%±2%) for 1 day. Pre-adaptation to measure rectal temperature at 8:00 and 15:00, rats were fasted and water was taken freely 12 h before experiment, and let the animal to empty its feces before measuring the rectal temperature. Apply petroleum jelly to the electronic thermometer probe before each temperature measurement. Insert the rat rectum 2 cm (can be marked at 2 cm to ensure that the depth of each insertion is consistent), and record the body temperature after the reading is stable.
Intraperitoneal injection of lipopolysaccharide to replicate rat fever model: The body temperature of the rats was measured before modeling. Qualified rats with a body temperature of 36.2-37.3° C. were selected and randomly divided into groups with 8 rats in each group. After oral administration of aspirin and different doses of protein BD-10, lipopolysaccharide (20 μg/kg, 2 ml/kg) was injected intraperitoneally immediately, and the normal control group was injected intraperitoneally with an equal volume of normal saline. The body temperatures of the rats were monitored after 2 hours for a total of 8 hours.
(§3) According to the body temperature measured at each time point on the day of the experiment, calculate the mean, standard deviation and standard error of the body temperature of each group of rats. The data of each group was compared with TTEST, and P<0.05 was considered as a significant difference.

[5] = test system: acetic acid writhing of ICR mice; test: Acetic acid writhing test in ICR mice; assay type: in vivo
Experimental: Animals: male ICR mice; Drugs and reagents: aspirin, physiological saline, glacial acetic acid, protein BD-10. Experiment grouping: • Model group; • Aspirin 300 mg/kg group; • Protein BD-10, 50 mg/kg group, 200 mg/kg group.
One day after the experimental animals adapt to the environment, Aspirin 300 mg/kg, protein BD-10 50 mg/kg, 200 mg/kg were given orally one hour in advance, and the administration volume was 10 ml/kg; Then, 0.6% acetic acid solution was injected intraperitoneally, and the incubation period (seconds) and frequency of writhing in the animal was observed within 15 minutes.
Calculate the mean and standard error of the data in each group. Compared with the model group by TTEST, P<0.05 was considered as statistically different.

[6] = test system: yeast-induced fever model in rats; test: Yeast-induced fever model in SD rats; assay type: in vivo; details: aspirin 300 mg/kg oral
Experimental: Animals: 230-260 grams of male SD rats; Medicines: yeast (OXOID LP0021), aspirin (SIGMA A2093), protein BD-10; Instruments: electronic balance (SARTORIUS BP121S type), electronic clinical thermometer (CITIZEN CT-513W type). Experiment grouping: • Normal control group; • Model group: yeast fever model; • Positive control group: Aspirin 300 mg/kg group; • Protein BD-10, 10 mg/kg group, 50 mg/kg group.
as §2
Subcutaneous injection of dry yeast to replicate rat fever model: The body temperature of the rats was measured before modeling. Qualified rats with a body temperature of 36.2-37.3° C. were selected and randomly divided into groups with 8 rats in each group. After oral administration of aspirin and different doses of protein BD-10, 20% yeast suspension (10 ml/kg) was injected subcutaneously immediately, and the normal control group was injected intraperitoneally with an equal volume of normal saline. The body temperatures of the rats were monitored after 2 hours for a total of 8 hours.
as §3

[7] = 2, 4, 6 and 8 hours after modeling, vs model group P<0.05
[8] = aspirin 300 mg/kg oral one hour before 0.6% acetic acid i.p., observed within 15 minutes
[9] = 20% yeast suspension 10 ml/kg s.c., SD rats

COc1ccc2c(c1)[C@]13CCCC[C@@H]1[C@H](C2)N(C)CC3 [Dextromethorphan, dextromethorphan hydrobromide, reference compound]
Incubation period (cough) ([1]; Dextromethorphan 15 mg/kg oral, 10% ammonia water atomized 10 seconds one hour later, X ± SEM): 38.4 ± 4.5 s | Number of coughs ([1]; Dextromethorphan 15 mg/kg oral, 10% ammonia water atomized 10 seconds one hour later, coughs within 2 minutes, X ± SEM): 34.0 ± 2.9 | Effect on incubation period and number of coughs (in words) ([1]; dextromethorphan 15 mg/kg group, vs solvent control group P<0.05): significant improvement

CN1C(=O)CN=C(c2ccccc2)c2cc(Cl)ccc21 [Diazepam, reference compound]
Grade IV seizure rate ([2]; 10 mice): 0** % | mortality rate ([2]; 10 mice): 0 | Grade II seizure incubation period ([2]; mean ± SEM): 109 ± 8 s | Grade III seizure incubation period ([2]; mean ± SEM): 182 ± 14 s | Grade IV seizure incubation period ([2]; mean ± SEM, mice not reaching Grade IV recorded as maximum 1800 seconds): 1800 ± 0 s | Cases of deaths ([2]; of 10 mice): 0 | Cases of Grade IV ([2]; of 10 mice, 30 minutes observation): 0**

CCOC(=O)Nc1ccc(NCc2ccc(F)cc2)cc1N [Retigabine, reference compound]
Grade IV seizure rate ([3]; 10 mice): 20%** | mortality rate ([3]; 10 mice): 0% | Grade III seizure incubation period ([3]; mean ± SEM): 83 ± 7 s | Grade IV seizure incubation period ([3]; mean ± SEM, mice not reaching Grade IV recorded as maximum 900 seconds): 745 ± 103 s | Cases of deaths ([3]; of 10 mice): 0 | Cases of Grade IV ([3]; of 10 mice, 15 minutes observation): 2**

CC(=O)Oc1ccccc1C(=O)O [aspirin, reference compound]
Effect on body temperature of model rats (in words) [4, 7]: can effectively inhibit the increase in body temperature | Body temperature 2 hours after modeling ([4]; LPS 20 μg/kg i.p., SD rats): 36.8 ± 0.1 °C | Body temperature 4 hours after modeling ([4]; LPS 20 μg/kg i.p., SD rats): 36.9 ± 0.2 °C | Body temperature 6 hours after modeling ([4]; LPS 20 μg/kg i.p., SD rats): 36.8 ± 0.2 °C | Body temperature 8 hours after modeling ([4]; LPS 20 μg/kg i.p., SD rats): 36.9 ± 0.1 °C | Effect on writhing incubation period and times of writhing (in words) ([5]; Aspirin 300 mg/kg, vs model group P<0.05): can significantly delay the incubation period of writhing and reduce the times of writhing | Frequency of writhing [5, 8]: 15.2 ± 2.9 times | Writhing incubation period [5, 8]: 290.3 ± 37.0 s | Effect on body temperature of model rats (in words) [6, 7]: can effectively inhibit the increase in body temperature | Body temperature 2 hours after modeling [6, 9]: 37.0 ± 0.1 °C | Body temperature 4 hours after modeling [6, 9]: 37.0 ± 0.1 °C | Body temperature 6 hours after modeling [6, 9]: 37.0 ± 0.1 °C | Body temperature 8 hours after modeling [6, 9]: 37.0 ± 0.1 °C
